Experimental data taken from ChEMBL document CHEMBL4043258, “Polycyclic polyprenylated acylphloroglucinol derivatives from Hypericum scabrum” (2017).

Tested on: HepG2
Test: Hepatoprotective activity in human HepG2 cells assessed as inhibition of paracetamol-induced reduction in cell viability at 10 uM pretreated for 1 hr followed by paracetamol addition after 24 hrs by MTT assay relative to control
Assay type: functional

SMILES	inhibition at 10 µM
CC[C@H](C)C(=O)[C@]12C(=O)[C@](C)(C[C@H](CC=C(C)C)[C@@]1(C)CCC=C(C)C)C(=O)C1=C2O[C@H](C(C)(C)O)C1	15%
CC(=O)CC1C2CC3(CC=C(C)C)C(=O)C1(C(=O)c1ccccc1)C(=O)C(CC=C(C)C)(C3=O)C2(C)C (stereo not given)	13.9%
CC(C)=CC[C@H]1C[C@]2(CC=C(C)C)C(=O)C3=C(O[C@H](C(C)(C)O)C3)[C@@](C(=O)c3ccccc3)(C2=O)C1(C)C	19.5%
CC(C)=CC[C@H]1C[C@@]23C[C@H](C(C)(C)O)OC2=C(C(=O)c2ccccc2)C(=O)[C@](C(=O)c2ccccc2)(C3=O)C1(C)C	13.4%
COC(=O)[C@]1(CC=C(C)C)C[C@@H](CC=C(C)C)C(C)(C)[C@@H](C(=O)c2ccccc2)C1=O	32.3%
CC(C)=CC[C@@H]1C[C@@]2(CC=C(C)C)C(=O)[C@](C(=O)c3ccccc3)(C(=O)C3=C2O[C@H](C(C)(C)O)C3)C1(C)C	24.5%
CC(C)=CCC1=C2O[C@@H](C(C)(C)O)C[C@@]23C[C@@H](CC=C(C)C)C(C)(C)[C@@](C(=O)c2ccccc2)(C1=O)C3=O	-9.68%
CC(C)=CC[C@H]1C[C@@]2(CC=C(C)C)C(=O)C3=C(O[C@H](C(C)(C)O)C3)[C@](C(=O)c3ccccc3)(C2=O)C1(C)C	40.4%
CC(C)=CC[C@H]1C[C@@H](CC=C(C)C)C(C)(C)C(C(=O)c2ccccc2)C1=O (single isomer, unassigned)	45%
COC(=O)c1cc(OC)c2c(c1-c1c(CO)cc(OC)c3c1OCO3)OCO2 [BICYCLOL]	28.3%
